The test system of data set [1] is Raw 264.7 cells. Briefly: Measurement of NO production in LPS-stimulated Raw 264.7 cells. In kind it is cell-based. As to conditions: for inhibition at 12.5 µM / inhibition at 25 µM / inhibition at 50 µM / inhibition at 100 µM: Mus musculus, RAW264.7, LPS 100 ng/ml, 24 h. As for the experimental part: Raw 264.7 cells were plated in a 96-well cell culture plate (50,000 cells/well). Lipopolysaccharide (LPS) was diluted to 100 ng/ml and the dilution was added to the cell culture media The LPS stimulus was applied for 24 h to induce the activity of the Raw 264.7 cells and supernatants (50 μl each) obtained from the 96-well cell culture plate were plated in a new plate. 50 μl of a sulfanilamide solution was added and the reaction was allowed to proceed for 10 min. 50 μl of a NED solution was added and the reaction was allowed to proceed for 10 min. The amount of NO produced from the cells in the cell culture media was determined by measuring the absorbance at a wavelength of 540 nm.

Data set [2] has as its system Raw 264.7 cells. The data set can be described thus: Cell viability measurement (MTS). The class given is cell-based. As for the experimental part: Raw 264.7 cells were plated in a 96-well cell culture plate (50,000 cells/well). The cell culture media were removed from the 96-well cell culture plate. 100 μl of MTS reagent (CellTiter 96 AQueous One Solution Cell Proliferation Assay, Promega) was added to each well and the reaction was allowed to proceed at 37° C. for 20 min. After the reaction was finished, the cell viability were determined by measuring the absorbance at a wavelength of 490 nm.

SMILES strings stand for the structures.

In the data set with Raw 264.7 cells [1], `CC(=O)Oc1ccccc1C(=O)O` [Aspirin, acetylsalicylic acid (aspirin)] had an inhibition at 12.5 µM of 0%, an inhibition at 25 µM of 0% and an inhibition at 50 µM of 9.29%. For the same compound, the inhibition at 100 µM with Raw 264.7 cells [1] (100 μM) amounted to 12.4%. The “reduction of NO production (in words)” value in the data set on Raw 264.7 cells [1] (together with LPS (100 ng/ml)) is reported as “less effective in reducing the production of NO”. In the data set with Raw 264.7 cells [2], the “cell toxicity (cell viability, MTS)” value is recorded as “no cell toxicities were observed”.
For `NC1=NCC2c3ccccc3Cc3ccccc3N12` (stereo not drawn) [Epinastine, epinastine], the “reduction of NO production (in words)” value in the data set with Raw 264.7 cells [1] (100 μM, LPS (100 ng/ml)) is listed as “found to reduce the production of NO”. In the data set with Raw 264.7 cells [1], the inhibition at 12.5 µM turned out to be 0%, the inhibition at 25 µM came out at 5.48% and the inhibition at 50 µM is 18.7%. Besides, the inhibition at 100 µM in the data set on Raw 264.7 cells [1] (100 μM) came to 33.4%. In addition, the “cell toxicity (cell viability, MTS)” value in the data set on Raw 264.7 cells [2] is given as “no cell toxicities were observed”.
In the data set with Raw 264.7 cells [1], `O=C(O)c1ccccc1O` [Salicylic acid] registered an inhibition at 12.5 µM of 0%, an inhibition at 25 µM of 1.27% and an inhibition at 50 µM of 7.18%. At 100 µM the inhibition with Raw 264.7 cells [1] (100 μM) was 15.6%. Also, the “reduction of NO production (in words)” value in the data set on Raw 264.7 cells [1] (together with LPS (100 ng/ml)) was “less effective in reducing the production of NO”. The “cell toxicity (cell viability, MTS)” value in the data set on Raw 264.7 cells [2] is “no cell toxicities were observed”.

Source of the values: patent US11396511B2, “Substituted 9,13b-dihydro-1H-dibenzo[c,f]imidazo[1,5-a]azepin-3-ylbenzamides as anti-inflammatory and analgesic agents” (FRONTBIO CO., LTD., priority 2017, dated 2022).
